Counter-ions that a name gives are not always drawn. Like-named read-outs stand apart in the source and are kept apart here.
Columns and labels:
[1] = test system: L1210; assay: Inhibition of the proliferation of tumor cells (MTT test), L1210; assay type: cell-based; settings: Table 2; L1210, leukemia (mouse)
Protocol: (§1) Inhibition of the proliferation of tumor cells (MTT test)
(§2) 1×10^4 cells per well are inoculated into a 96-well microtiter plate. After 24 h, the test substances are added at various concentrations. Each group consists of 4 wells, the control is only incubated with medium. After 65 h, 50 μl of MTT (3-(4,5-dimethyl-2-thiazolyl)-2,5-diphenyl-2H-tetrazolium bromide; 2.5 mg/ml in PBS) are added and, after 7 h, the supernatant is removed. The color formed by the living cells is dissolved by addition of 100 μl of dimethyl sulfoxide/well. The extinction is measured at 492 nm for each well with the aid of a Multiscan photometer 340 CC (Flow). The cell lines used are obtainable as follows from the American Type Culture Collection: HUV-EC-C is ATCC CRL 1730; A-172 is ATCC CRL 1620; L 1210 is ATCC CCL 219; LoVo is ATCC CCL 229; C 6 is ATCC CCL 107 and a rat glioblastoma cell line.
(§3) The mean value is formed from the 4 wells of a group and the IC50 values are calculated from the dose-response curve using the Software 3.0 (Erithacus Software Ltd.).

[2] = test system: LoVo cells; assay: MTT test on LoVo cells with added uridine; assay type: cell-based, human; settings: for IC50: Homo sapiens, LoVo, Table 3
Protocol: as §2, §3
The procedure is as in Example 6; uridine is additionally added to the batches.

[3] = test system: pyrimidine and purine nucleotides; settings: cited from earlier work
[4] = test system: LoVo cells; assay: Inhibition of the proliferation of tumor cells (MTT test), LoVo; assay type: cell-based, human
Protocol: as §1, §2, §3

[5] = test system: in vitro cell lines; settings: Peters et al., 1987; cited from earlier work
[6] = test system: plasma uridine; settings: clinical investigations, cited from earlier work
[7] = test system: C 6; assay: Inhibition of the proliferation of tumor cells (MTT test), C 6; assay type: cell-based, rat
Protocol: as §1, §2, §3

[8] = test system: A-172; assay: Inhibition of the proliferation of tumor cells (MTT test), A-172; assay type: cell-based, human
Protocol: as §1, §2, §3

[9] = test system: HUV-EC-C; assay: Inhibition of proliferation (MTT test), HUV-EC-C / HUVEC endothelial cells; assay type: cell-based, human
Protocol: as §1, §2, §3

[10] = biological target: T1, Human DHODH (spleen) (Homo sapiens, UniProt Q02127); assay: Human DHODH (spleen) enzyme activity; assay type: biochemical
T1 construct: Human DHODH (spleen) enzyme activity; from tissue; host or cells: human spleen
T1 sequence (Q02127 whole entry): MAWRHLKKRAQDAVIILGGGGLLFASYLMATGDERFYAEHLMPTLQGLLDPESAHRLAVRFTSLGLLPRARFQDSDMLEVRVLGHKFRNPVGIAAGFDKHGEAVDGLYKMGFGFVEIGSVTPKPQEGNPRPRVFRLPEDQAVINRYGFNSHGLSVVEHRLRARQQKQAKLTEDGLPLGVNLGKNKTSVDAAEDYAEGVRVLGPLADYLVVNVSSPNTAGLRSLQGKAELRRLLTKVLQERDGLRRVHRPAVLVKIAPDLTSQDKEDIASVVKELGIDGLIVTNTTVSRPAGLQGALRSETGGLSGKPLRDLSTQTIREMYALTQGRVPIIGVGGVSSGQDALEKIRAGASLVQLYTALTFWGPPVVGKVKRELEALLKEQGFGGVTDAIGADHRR

[11] = Homo sapiens, Table 2, colonic carcinoma, no uridine, read-out: MTT Test IC50
[12] = Rattus norvegicus, C6, Table 2, C 6, rat glioblastoma, read-out: MTT Test IC50
[13] = Homo sapiens, A 172, Table 2, A-172, glioblastoma, read-out: MTT Test IC50
[14] = Homo sapiens, Endothelial cell, Table 2, HUV-EC-C, endothelial cell, read-out: MTT Test IC50
[15] = Homo sapiens, Table 4, read-out: LoVo (tested as described in Example 6, MTT test)
[16] = Rattus norvegicus, C6, Table 4, C 6, read-out: C 6 (tested as described in Example 6, MTT test)
[17] = Homo sapiens, A 172, Table 4, A172, read-out: A172 (tested as described in Example 6, MTT test)
[18] = Homo sapiens, HUVEC, Table 4, HUVEC, read-out: HUVEC (tested as described in Example 6, MTT test)
[19] = human DHODH (spleen), read-out: DHODH IC50

Compound	IC50 [4, 15] [µM]	IC50 [7, 16] [µM]	IC50 [8, 17] [µM]	IC50 [9, 18] [µM]	other results
Cc1c(-c2ccc(-c3ccccc3F)cc2)nc2ccc(F)cc2c1C(=O)O [Brequinar, reference compound]					IC50 [1]: 1 µM; IC50 ([2]; uridine 0 μM): 0.388 µM; IC50 ([2]; uridine 1000 μM): 129 µM; change of the IC50 value on the LoVo cell line on addition of increasing amounts of uridine ([2]; MTT test, in words): massive increase in the IC50 value; depletion of nucleotides ([3]; Schwartsmann et al., 1988): depletion of pyrimidine ribo- and deoxyribonukleotides, but not of purine nucleotides; depletion of dTTP and dCTP ([3]; relative to UTP and CTP, uridine addition): proportional to that of UTP and CTP and can be prevented by the addition of uridine; IC50 [4, 11]: 0.388 µM; inhibition of growth of in vitro cell lines, reversal by nucleosides [5]: can be abolished by addition of uridine or cytidine, but not by deoxythymidine or deoxycytidine; plasma uridine values ([6]; Peters et al., 1988): significantly lowers the plasma uridine values; correlation of in vivo uridine level effects with bone marrow and gastrointestinal tract toxicity [6]: correlated with the bone marrow and gastrointestinal tract toxicity; IC50 [7, 12]: 9 µM; IC50 [8, 13]: 0.2 µM; IC50 [9, 14]: 9.4 µM
C#CCCC(O)=C(C#N)C(=O)Nc1ccc(C(F)(F)F)cc1 [Compound 1, N-(4-Trifluoromethylphenyl)-2-cyano-3-hydroxyhept-2-en-6-yne-carboxamide sodium salt]	137	68	78	164	IC50 [1]: 9.1 µM; IC50 ([2]; uridine 0 μM): 168 µM; IC50 ([2]; uridine 1000 μM): 278 µM; IC50 [10]: 0.292 µM; IC50 [4, 11]: 137 µM; IC50 [7, 12]: 68 µM; IC50 [8, 13]: 78 µM; IC50 [9, 14]: 164 µM
N#CC(C(=O)Nc1ccc(C#N)cc1)=C(O)C1CC1 [Compound 2, 2-Cyano-3-cyclopropyl-3-hydroxyacrylic acid (4-cyanophenyl)amide sodium salt]	392	20	169	360	IC50 [1]: 6.1 µM; IC50 ([2]; uridine 0 μM): 359 µM; IC50 ([2]; uridine 1000 μM): 560 µM; IC50 [10, 19]: 0.625 µM; IC50 [4, 11]: 392 µM; IC50 [7, 12]: 20 µM; IC50 [8, 13]: 169 µM; IC50 [9, 14]: 360 µM
N#CC(C(=O)Nc1ccc(C(F)(F)F)cc1)=C(O)C1CC1 [Compound 5]	34	5	30	94	
N#CC(C(=O)Nc1ccc(Br)cc1)=C(O)C1CC1 [Compound 7]	37	11	37	267	
N#CC(C(=O)Nc1ccc(Oc2ccccc2)cc1)=C(O)C1CC1 [Compound 8]	13	18	28	138	
N#CC(C(=O)Nc1ccc(OC(F)(F)F)cc1)=C(O)C1CC1 [Compound 10]	21	4	25	186	
Cc1cc(NC(=O)C(C#N)=C(O)C2CC2)ccc1F [Compound 13]	15	13	32	> 400	
Cc1cc(NC(=O)C(C#N)=C(O)C2CC2)ccc1C(F)(F)F [Compound 14]					IC50 ([4]; Table 4, read-out: LoVo (tested as described in Example 6, MTT test)): 61 µM; IC50 ([7]; Table 4, C 6, read-out: C 6 (tested as described in Example 6, MTT test)): 7 µM; IC50 ([8]; Table 4, A172, read-out: A172 (tested as described in Example 6, MTT test)): 58 µM; IC50 ([9]; Table 4, HUVEC, read-out: HUVEC (tested as described in Example 6, MTT test)): 197 µM
C=CCCC(O)=C(C#N)C(=O)Nc1ccc(C(F)(F)F)cc1 [Compound 17]	75	186	55	127	
C=CCC(O)=C(C#N)C(=O)Nc1ccc(SC(F)(F)F)cc1 [Compound 19]	171	32	118	135	
N#CC(C(=O)Nc1ccc(Oc2ccc(F)cc2)cc1)=C(O)C1CCCC1 [Compound 20]	119	182	158	> 400	
C=CCCC(O)=C(C#N)C(=O)Nc1ccc(C)c(C)c1 [Compound 21]	27	69	63	339	
C=CCC(O)=C(C#N)C(=O)Nc1ccc(F)cc1 [Compound 22]	149	103	> 400	> 400	
N#CC(C(=O)Nc1ccc(C(F)(F)F)cn1)=C(O)C1CC1 [Compound 23]	75	7	94	> 400	
N#CC(C(=O)Nc1ccc(-c2ccccc2)cc1)=C(O)C1CC1 [Compound 24]					IC50 ([4]; Homo sapiens, read-out: LoVo (tested as described in Example 6, MTT test)): 6 µM; IC50 ([7]; Rattus norvegicus, C6, read-out: C 6 (tested as described in Example 6, MTT test)): 34 µM; IC50 ([8]; Homo sapiens, A 172, read-out: A172 (tested as described in Example 6, MTT test)): 22 µM; IC50 ([9]; Homo sapiens, HUVEC, read-out: HUVEC (tested as described in Example 6, MTT test)): 74 µM
CC(C)=CCCC(O)=C(C#N)C(=O)Nc1ccc(C(F)(F)F)cc1 [Compound 25]	306	87	95	301	
C#CCCC(O)=C(C#N)C(=O)Nc1ccc(Cl)cn1 [Compound 27]	153	126	142	> 400	

Further compounds by falling IC50 [4, 15], results first:

IC50 [4, 15] [µM]	IC50 [7, 16] [µM]	IC50 [8, 17] [µM]	Compound	IC50 [9, 18] [µM]	other results
400	21	193	C=CC(O)=C(C#N)C(=O)Nc1ccc(C(F)(F)F)cc1 [Compound 9]	> 400	
160	57	55	C=CCC(O)=C(C#N)C(=O)Nc1ccc(C(F)(F)F)cc1 [Compound 11]	187	
146	24	200	CC=CC=CC(O)=C(C#N)C(=O)Nc1ccc(C(F)(F)F)cc1 [Compound 26]	378	
110	84	190	N#CC(C(=O)Nc1ccc(Oc2ccc(F)cc2)cc1)=C(O)C1CCC1 [Compound 18]	159	
55	6	43	Cc1cc(NC(=O)C(C#N)=C(O)C2CC2)ccc1C(F)(F)F [Compound 12]	322	IC50 [10, 19]: 0.539 µM
24	11	25	N#CC(C(=O)Nc1ccc(Cl)cc1)=C(O)C1CC1 [Compound 6]	> 400	
21	2	13	N#CC(C(=O)Nc1ccc(SC(F)(F)F)cc1)=C(O)C1CC1 [Compound 15]	98	
7	36	17	Cc1cc(Cl)ccc1Oc1ccc(NC(=O)C(C#N)=C(O)C2CC2)cc1 [Compound 16]	299	
